We go through one compound from PMC12094199 (Science Advances, 2025).

One data set relates to U87MG cells. Put plainly: Cell survival assay. Format: cell-based. To be noted: Homo sapiens, U-87 MG, 48 h, read-out: IC50 (cytotoxicity).
Another data set can be described thus: Cell survival assay. Type of data set: cell-based. To be noted: human, HEK-293 cells.

On to `CC(=O)O[C@H]1C(=O)[C@@]2(C)[C@H]([C@H](OC(=O)c3ccccc3)[C@]3(O)C[C@H](OC(=O)[C@H](O)[C@@H](NC(=O)c4ccccc4)c4ccccc4)C(C)=C1C3(C)C)[C@]1(OC(C)=O)CO[C@@H]1C[C@@H]2O` [PTX, paclitaxel], for which the half-inhibitory concentration (IC50) with U87MG cells came out at 218 ± 54.2 nM. For the same compound, the IC50 at 48 h in “Cell survival assay” was found to be 27.8 ± 3.3 nM.
